Measurements taken from patent US9394264B2 (Receptos, Inc., priority 2009, dated 2016).
Structures can show the parent of a compound that is named as a salt. Where two headings read alike, the source gives them in different places.

Legend:
Format in all cases: cell-based
S1P1/EDG1 = S1P1/EDG1 (Homo sapiens, UniProt P21453); experiment: S1P1 CRE-bla CHOK1 reporter assay (inhibition of Forskolin induced cAMP); settings: S1P1 CRE-bla CHOK1 cells, 2 μM Forskolin
From the text: A mammalian expression plasmid containing S1P1/EDG1 cloned into pcDNA3.1 was purchased from Missouri S&T cDNA Resource Centre. The nucleotide and amino acid sequence of human S1P1/EDG1 are published in Hla and Maciag (J Biol Chem, 265(1990), 9308-9313). S1P1/pcDNA3.1 was transfected into the CRE-bla CHO K1 (Invitrogen) cell line, and stable single cell clones were selected using standard techniques. Expression of functional S1P1/EDG1 receptor was confirmed by cell surface FACS with a S1P1 antibody (R&D Systems, clone 218713) and S1P-mediated inhibition of Forskolin induced cAMP.
(§1) Cells were seeded into 384-well black wall/clear bottom plates at 10^4 cells/well/19.5 μl assay media (DMEM-phenol free, 0.5% charcoal/dextran stripped serum, 2 mM glutamine, 0.1 mM NEAA, 1 mM Na-Pyruvate, 25 mM Hepes) and incubated for 18 hrs at 37° C. in 5% CO2. Dose response curves (10-point) were generated in 10 mM Hepes, 0.1% Pluronic F127, in the presence of Forskolin. Cells were treated with 0.5 μl compound in the presence of 2 μM Forskolin for 4 hrs at 37° C. The FRET-based β-lactamase fluorescent substrate (LiveBLAzer™-FRET B/G Loading Kit CC4-AM; Invitrogen) was prepared according to manufacturer's directions, and incubated with cells for 2 hrs at room temperature. Plates were read at Ex:410/Em:458 and Ex:410/Em:522, and the response ratio determined. Data was analyzed by non-linear regression to determine the EC50 for inhibition of Forskolin induced cAMP.

S1P2 = target: T1, S1P2 (Homo sapiens, UniProt O95136); experiment: Specificity over other S1P receptors: S1P2 CRE-bla CHOK1; settings: S1P2 CRE-bla CHOK1, without Forskolin; read-out: S1P2 agonist value (EC50)
T1 construct: expressed in transfected cells; host or cells: CRE-bla CHOK1
T1 sequence (O95136 whole entry, species assumed): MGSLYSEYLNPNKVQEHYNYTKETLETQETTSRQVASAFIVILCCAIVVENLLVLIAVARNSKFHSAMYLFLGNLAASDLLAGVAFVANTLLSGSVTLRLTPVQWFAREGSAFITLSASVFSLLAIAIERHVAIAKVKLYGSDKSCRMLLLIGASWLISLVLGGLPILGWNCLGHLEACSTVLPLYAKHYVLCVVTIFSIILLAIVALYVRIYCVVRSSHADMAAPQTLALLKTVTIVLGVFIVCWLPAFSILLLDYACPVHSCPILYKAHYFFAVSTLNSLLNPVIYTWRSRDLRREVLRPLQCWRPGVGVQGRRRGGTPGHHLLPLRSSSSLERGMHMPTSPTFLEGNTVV
Description: as §1
(§2) To assess compound specificity on other S1P receptors the following cell lines were used: S1P2 CRE-bla CHOK1, S1P3-Gα15 NFAT-bla HEK293T (Invitrogen), S1P4-bla TANGO U2OS (Invitrogen), S1P5-bla TANGO U2OS (Invitrogen). The same assay set up for S1P1 was used but without Forskolin. S1P4 and S1P5 assays were performed in FreeStyle Expression medium (Invitrogen). S1P5 cells were incubated for 48 hrs in prior to treatment with compound.

S1P3 = target: T2, S1P3 (Homo sapiens, UniProt Q99500); experiment: Specificity over other S1P receptors: S1P3-Gα15 NFAT-bla HEK293T; settings: without Forskolin, read-out: S1P3 agonist value (EC50)
T2 construct: host or cells: NFAT-bla HEK293T
T2 sequence (Q99500 whole entry): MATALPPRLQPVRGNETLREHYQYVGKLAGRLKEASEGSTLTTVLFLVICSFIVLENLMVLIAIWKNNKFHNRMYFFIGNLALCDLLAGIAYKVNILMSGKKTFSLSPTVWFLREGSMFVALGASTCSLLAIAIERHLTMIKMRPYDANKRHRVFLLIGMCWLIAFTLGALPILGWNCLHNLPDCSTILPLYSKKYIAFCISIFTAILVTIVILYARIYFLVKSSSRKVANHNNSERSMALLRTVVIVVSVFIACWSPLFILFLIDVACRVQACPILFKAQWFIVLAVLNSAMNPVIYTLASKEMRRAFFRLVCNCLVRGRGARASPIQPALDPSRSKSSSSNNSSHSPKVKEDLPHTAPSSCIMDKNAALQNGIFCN
Description: as §1, §2

S1P4 = target: T3, S1P4 (Homo sapiens, UniProt O95977); experiment: Specificity over other S1P receptors: S1P4-bla TANGO U2OS; settings: without Forskolin, read-out: S1P4 agonist value (EC50)
T3 construct: Tango fusion (C); host or cells: U2OS (Tango, bla reporter)
T3 sequence (O95977 1-384): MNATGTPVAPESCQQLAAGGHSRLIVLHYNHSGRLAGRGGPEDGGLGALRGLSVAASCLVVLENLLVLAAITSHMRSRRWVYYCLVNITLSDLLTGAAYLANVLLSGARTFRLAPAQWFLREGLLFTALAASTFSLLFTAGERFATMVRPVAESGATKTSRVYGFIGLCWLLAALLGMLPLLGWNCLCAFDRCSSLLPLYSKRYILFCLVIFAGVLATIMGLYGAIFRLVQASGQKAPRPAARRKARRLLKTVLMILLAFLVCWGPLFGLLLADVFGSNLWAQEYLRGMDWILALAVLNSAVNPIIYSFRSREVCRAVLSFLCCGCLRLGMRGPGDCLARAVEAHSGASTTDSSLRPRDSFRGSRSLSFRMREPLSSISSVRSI
Description: as §1, §2

S1P5 = target: T4, S1P5 (Homo sapiens, UniProt Q9H228); experiment: Specificity over other S1P receptors: S1P5-bla TANGO U2OS; settings: without Forskolin, read-out: S1P5 agonist value (EC50)
T4 construct: Tango fusion (C); host or cells: U2OS (Tango, bla reporter)
T4 sequence (Q9H228 whole entry, the tested form may be a part): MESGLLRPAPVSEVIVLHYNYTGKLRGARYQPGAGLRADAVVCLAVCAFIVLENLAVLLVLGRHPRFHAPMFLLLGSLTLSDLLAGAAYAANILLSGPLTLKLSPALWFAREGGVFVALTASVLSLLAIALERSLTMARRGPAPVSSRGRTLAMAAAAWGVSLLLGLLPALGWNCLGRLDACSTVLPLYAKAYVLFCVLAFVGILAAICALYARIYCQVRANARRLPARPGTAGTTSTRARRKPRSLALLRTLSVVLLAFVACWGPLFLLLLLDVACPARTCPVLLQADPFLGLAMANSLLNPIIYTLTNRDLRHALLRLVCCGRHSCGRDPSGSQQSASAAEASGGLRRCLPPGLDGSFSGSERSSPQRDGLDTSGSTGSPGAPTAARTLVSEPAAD
Description: as §1, §2

[1] = read-out: S1P1 agonist value (EC50)
[2] = agonist activity range, read-out: S1P1 ACTIVITY

Chain of S1P1/EDG1 (P21453 whole entry): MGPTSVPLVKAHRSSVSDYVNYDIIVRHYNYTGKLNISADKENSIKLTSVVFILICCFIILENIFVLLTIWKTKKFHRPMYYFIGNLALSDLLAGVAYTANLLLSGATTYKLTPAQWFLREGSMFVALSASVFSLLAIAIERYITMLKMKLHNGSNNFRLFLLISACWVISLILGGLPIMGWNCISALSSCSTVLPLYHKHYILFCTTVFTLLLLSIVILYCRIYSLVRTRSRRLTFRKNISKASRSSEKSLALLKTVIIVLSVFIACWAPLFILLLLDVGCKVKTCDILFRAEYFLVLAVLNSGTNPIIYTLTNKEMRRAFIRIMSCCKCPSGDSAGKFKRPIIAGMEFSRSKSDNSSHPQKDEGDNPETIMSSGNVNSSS

Row | SMILES | EC50 (S1P1/EDG1; [1]) | EC50 (S1P1/EDG1; [2]) | EC50 (S1P2) | EC50 (S1P3) | EC50 (S1P4) | EC50 (S1P5)
1 | CC(C)Oc1ccc(-c2nc(-c3cccc4c3CCC[C@@H]4NC(=O)N3CC(O)C3)no2)cc1C#N [Compound 8, (S)-N-(5-(5-(3-cyano-4-isopropoxyphenyl)-1,2,4-oxadiazol-3-yl)-1,2,3,4-tetrahydronaphthalen-1-yl)-3-hydroxyazetidine-1-carboxamide] | 0.143 nM | 0.05 to 0.5 nM | > 10000 nM | > 10000 nM | > 10000 nM | 109 nM
2 | CC(C)Oc1ccc(-c2nc(-c3cccc4c3CCC[C@H]4NC(=O)N3CC[C@H](O)C3)no2)cc1C#N [Compound 13] | 0.1 nM | 0.05 to 0.5 nM | > 10000 nM | > 10000 nM | > 10000 nM | 77 nM
3 | CC(C)Oc1ccc(-c2nc(-c3cccc4c3CCC[C@@H]4NS(C)(=O)=O)no2)cc1C#N [Compound 29, (S)-N-(5-(5-(3-cyano-4-isopropoxyphenyl)-1,2,4-oxadiazol-3-yl)-1,2,3,4-tetrahydronaphthalen-1-yl)methanesulfonamide] | 0.065 nM | 0.05 to 0.5 nM | > 10000 nM | > 10000 nM | > 10000 nM | 37.8 nM
4 | COCCS(=O)(=O)N[C@H]1CCCc2c(-c3noc(-c4ccc(OC(C)C)c(C#N)c4)n3)cccc21 [Compound 33, (S)-N-(5-(5-(3-cyano-4-isopropoxyphenyl)-1,2,4-oxadiazol-3-yl)-1,2,3,4-tetrahydronaphthalen-1-yl)-2-methoxyethanesulfonamide] | 0.192 nM | 0.05 to 0.5 nM | > 10000 nM | > 10000 nM | 617 nM | 260 nM
5 | CC(C)Oc1ccc(-c2nc(-c3cccc4c3CCC[C@H]4NS(=O)(=O)CCO)no2)cc1C#N [Compound 37, (R)-N-(5-(5-(3-cyano-4-isopropoxyphenyl)-1,2,4-oxadiazol-3-yl)-1,2,3,4-tetrahydronaphthalen-1-yl)-2-hydroxyethanesulfonamide] | 0.024 nM | < 0.05 nM | 1440 nM | > 10000 nM | 879 nM | 3.5 nM
6 | CC(C)Oc1ccc(-c2nc(-c3cccc4c3CCC[C@@H]4NCCS(C)(=O)=O)no2)cc1C#N [Compound 49, (S)-2-isopropoxy-5-(3-(5-((42-(methylsulfonyl)ethyl)amino)-5,6,7,8-tetrahydronaphthalen-1-yl)-1,2,4-oxadiazol-5-yl)benzonitrile] | 0.104 nM | 0.05 to 0.5 nM | > 10000 nM | > 10000 nM | > 10000 nM | 94.6 nM
7 | CCOc1ccc(Cc2nc(-c3cccc4c3CCC4NCCO)no2)cc1OCC (centres unmarked) [Compound 61, 2-((4-(5-(3,4-diethoxybenzyl)-1,2,4-oxadiazol-3-yl)-2,3-dihydro-1H-inden-1-yl)amino)ethanol] | – | > 5 nM | – | – | – | –
8 | CCOc1ccc(Cc2nc(-c3cccc4c3CCC4N[C@H](C)CO)no2)cc1OCC (some centres unmarked) [Compound 62] | – | > 5 nM | – | – | – | –
9 | CCOc1ccc(Cc2nc(-c3cccc4c3CCC4NCCS(C)(=O)=O)no2)cc1OCC (centres unmarked) [Compound 63, 4-(5-(3,4-diethoxybenzyl)-1,2,4-oxadiazol-3-yl)-N-(2-(methylsulfonyl)ethyl)-2,3-dihydro-1H-inden-1-amine] | – | > 5 nM | – | – | – | –
10 | CCOc1ccc(Cc2nc(-c3cccc4c3CCC4NCCS(=O)(=O)NC)no2)cc1OCC (centres unmarked) [Compound 64, 2-((4-(5-(3,4-diethoxybenzyl)-1,2,4-oxadiazol-3-yl)-2,3-dihydro-1H-inden-1-yl)amino)-N-methylethanesulfonamide] | – | > 5 nM | – | – | – | –
11 | CCOc1ccc(Cc2nc(-c3cccc4c3CC[C@H]4N)no2)cc1OCC [Compound 65, (R)-4-(5-(3,4-diethoxybenzyl)-1,2,4-oxadiazol-3-yl)-2,3-dihydro-1H-inden-1-amine hydrochloride] | – | > 5 nM | – | – | – | –
12 | CCOc1ccc(Cc2nc(-c3cccc4c3CC[C@@H]4NCC(=O)N(C)C)no2)cc1OCC [Compound 66, (S)-2-((4-(5-(3,4-diethoxybenzyl)-1,2,4-oxadiazol-3-yl)-2,3-dihydro-1H-inden-1-yl)amino)-N,N-dimethylacetamide] | – | > 5 nM | – | – | – | –
13 | OCCN[C@@H]1CCc2c(-c3noc(-c4cc(-c5ccccc5)c(C(F)(F)F)s4)n3)cccc21 [Compound 67, (R)-2-(4-(5-(4-phenyl-5-(trifluoromethyl)thiophen-2-yl)-1,2,4-oxadiazol-3-yl)-2,3-dihydro-1H-inden-1-ylamino)ethanol] | – | > 5 nM | – | – | – | –
14 | CC(C)Oc1ccc(-c2nc(-c3ccc4[nH]ccc4c3)no2)cc1C#N [Compound 68, 5-(3-(1H-indol-5-yl)-1,2,4-oxadiazol-5-yl)-2-isopropoxybenzonitrile] | – | 0.5 to 5 nM | – | – | – | –
15 | CC(C)Oc1ccc(-c2nc(-c3ccc4occc4c3)no2)cc1C#N [Compound 69, 5-(3-(benzofuran-5-yl)-1,2,4-oxadiazol-5-yl)-2-isopropoxybenzonitrile] | – | 0.5 to 5 nM | – | – | – | –
16 | Cc1cnccc1-c1noc(-c2ccc(OC(C)C)c(C#N)c2)n1 [Compound 70, 2-isopropoxy-5-(3-(3-methylpyridin-4-yl)-1,2,4-oxadiazol-5-yl)benzonitrile] | – | < 0.05 nM | – | – | – | –
17 | CC(C)Oc1ccc(-c2nc(-c3ccnc(CO)c3)no2)cc1C#N [Compound 71, 5-(3-(2-(hydroxymethyl)pyridin-4-yl)-1,2,4-oxadiazol-5-yl)-2-isopropoxy-benzonitrile] | – | 0.05 to 0.5 nM | – | – | – | –
